Laboratory results as given in ChEMBL document CHEMBL2069209, “Identification of selective tubulin inhibitors as potential anti-trypanosomal agents” (Bioorg Med Chem Lett, 2012).

Assays:
Trypanosoma brucei = experiment: Antitrypanosomal activity against bloodstream form of Trypanosoma brucei 427 after 48 hrs by MTS assay; assay type: functional, organism-based; conditions: Trypanosoma brucei, 427, 48 h
[1] = Selectivity ratio of IC50 for human SKBR3 cells to IC50 for bloodstream form of Trypanosoma brucei 427; assay type: ADME, cell-based, SK-BR-3; conditions: read-out: Ratio IC50
SK-BR-3 = experiment: Growth inhibition of human SKBR3 cells after 48 hrs by MTT assay; assay type: cell-based; conditions: SK-BR-3, 48 h

| SMILES | IC50 (Trypanosoma brucei) | selectivity ratio [1] | IC50 (SK-BR-3) |
| --- | --- | --- | --- |
| Cc1ccc(C)c(COc2cc(NC(=O)Cc3ccccc3)ccc2N(C)S(C)(=O)=O)c1 | 51.3 µM | 2.3 | – |
| O=C(Nc1ccncc1)C(=O)c1cn(Cc2ccc(Cl)cc2)c2ccccc12 [INDIBULIN] | 114 µM | – | 0.033 µM |
| COC(=O)Nc1nc2cc(C(=O)c3cccs3)ccc2[nH]1 [NOCODAZOLE] | 44.2 µM | – | 0.084 µM |
| Cc1ccc(C)c(COc2cc(NC(=O)c3ccccc3)ccc2N(C)S(C)(=O)=O)c1 | 6.44 µM | 0.6 | – |
| COc1ccc(S(=O)(=O)Nc2cccnc2Nc2ccc(O)cc2)cc1 [ABT-751] | 82.1 µM | – | 0.74 µM |
| COc1ccc(CC(=O)Nc2ccc(N(C)S(C)(=O)=O)c(OCc3cc(C)ccc3C)c2)cc1OC | 6.85 µM | 5 | – |
| CN(c1ccc(NC(=O)c2ccc(Cl)c([N+](=O)[O-])c2)cc1OCc1ccccc1)S(C)(=O)=O | 2.3 µM | 4 | – |
| CC[C@]1(O)C[C@@H]2CN(CCc3c([nH]c4ccccc34)[C@@](C(=O)OC)(c3cc4c(cc3OC)N(C)[C@H]3[C@@](O)(C(=O)OC)[C@H](OC(C)=O)[C@]5(CC)C=CCN6CC[C@]43[C@@H]65)C2)C1 [VINBLASTINE] | 0.41 µM | – | 0.00091 µM |
| Cc1ccc(C)c(COc2cc(NC(=O)c3ccc4c(c3)OCO4)ccc2N(C)S(C)(=O)=O)c1 | 3.22 µM | 0.1 | – |
| CC(=O)O[C@H]1C(=O)[C@@]2(C)[C@H]([C@H](OC(=O)c3ccccc3)[C@]3(O)C[C@H](OC(=O)[C@H](O)[C@@H](NC(=O)c4ccccc4)c4ccccc4)C(C)=C1C3(C)C)[C@]1(OC(C)=O)CO[C@@H]1C[C@@H]2O [PACLITAXEL] | 0.0046 µM | – | – |
| CN(c1ccc(NC(=O)c2ccc(C#N)cc2)cc1OCc1ccccc1)S(C)(=O)=O | 2.8 µM | 6 | – |
